Laboratory results reported in PMC9198545, “Pharmacokinetics and Pharmacodynamics of Fungal Defensin NZX Against Staphylococcus aureus-Induced Mouse Peritonitis Model” (Frontiers in Microbiology, 2022).
Where a SMILES comes first, the peptide text is derived from it. Bridges are numbered along the chain shown (N, C = ends).

Columns and labels:
[1] = Pharmacokinetics in non-infected mice, single tail vein dose; assay type: in vivo, mouse; details: for T1/2, terminal elimination half-life / AUC, area under concentration-time curves / Cmax, peak concentration / MRT, mean residence time / Vd, apparent distribution volume: free-serum NZX; for T1/2, terminal elimination half-life: non-infected female ICR mice, microbiologic assay, non-compartment model; for AUC, area under concentration-time curves / Cmax, peak concentration / MRT, mean residence time / Vd, apparent distribution volume: non-infected mice
Method: (§1) The 6-week-old, specific-pathogen-free, female ICR mice (starting weight, 23 to 27 g) were purchased from Beijing Vital River Laboratory Animal Technology Co., Ltd (Beijing, China). The animals were acclimatized for 2 to 3 days before the experiment. The pharmacokinetics of NZX was evaluated in uninfected female ICR mice that received a single tail vein NZX dose of 5, 10, or 20 mg/kg, respectively. After NZX administration, blood samples were collected by orbital venous from five mice per time point at 0.083 to 2 h intervals over 6 h. After centrifugation at 4,000 rpm for 20 min at 4°C, the serum was immediately separated and frozen at −80°C until analysis. Analyses of total serum concentrations of NZX were conducted by a microbiologic assay using S. aureus ATCC 6538p (CICC 10307) as the test strain (Andes et al., [2009]). […] The protein binding of NZX in serum was measured by the ultrafiltration method using Centrifree Filters (Merck Millipore Ltd., Product code: 4104), according to previously described methods by Brinch et al. ([2009]). The concentration of NZX in the ultrafiltrate was determined by HPLC methods.
The pharmacokinetic parameters of NZX in the serum were analyzed using a non-compartment model by WinNonlin software (version 8.1; Pharsight, USA). GraphPad Prism (version 9.0.1) was used for all statistical analyses. One-way ANOVA followed by Dunnett's test was performed to compare the difference between groups. A P-value <0.05 was considered as the significant difference. Kaplan Meier analysis was conducted for the survival curve; log-rank (Mantel-Cox) test analyses were used to compare the survival rate difference.

[2] = Serum protein binding by ultrafiltration; assay type: in vitro ADME, mouse; details: murine serum, ultrafiltration with Centrifree Filters, ultrafiltrate by HPLC
Method: as §1

[3] = Stability in mouse serum by RP-HPLC; assay type: in vitro ADME; details: 25% mouse serum spiked with 100 μg/ml NZX, 37°C, peak area ratio to initial time, read-out: peptide remaining intact
Method: The stability of NZX in the mouse serum was determined when placed at 37°C (Wang et al., [2020]). The stock mixture from 25% serum was spiked with 100 μg/ml NZX and vortexed well. The mixtures were incubated at 37°C. At 0, 4, 8, 12, and 24 h, samples were taken out, extracted, and analyzed by reverse-phase high-performance liquid chromatography (RP-HPLC). The results were expressed as the ratio of the peak area of the peptide at various times to that of the initial incubation time.

S. aureus E48 = experiment: PK/PD index determination, dose fractionation, sigmoidal Emax model; assay type: in vivo, mouse
Method: A dose fractionation study was applied to determine the PK/PD parameters of ƒAUC/MIC, ƒCmax/MIC, and ƒT% > MIC, and those parameters were predictive of efficacies for NZX against S. aureus E48. […] The correlations between efficacies and each PK/PD index were analyzed by non-linear least-squares regression based on the sigmoidal Emax model (Hill's equation) (Yu et al., [2016]). Hill's equation was defined as follows:
E =[…] × Ce^N/EC50N + Ce^N
where E is the observed antibacterial effect, which describes the change of log10 CFU/ml in the peritoneal fluid after 24 h of NZX treatment compared to the colony counts at the start of therapy. Emax is the change of log10 CFU/ml in the peritoneal fluid after 24 h of NZX treatment when the maximum antibacterial effect has been reached. E0 is the change of log10 CFU/ml in the peritoneal fluid between initial therapy and after 24 h therapy in untreated control animals. Ce is defined as the three PK/PD parameters (ƒAUC/MIC ratio, ƒCmax/MIC ratio, and ƒT % > MIC). EC50 is the value of the PK/PD parameter that is required to achieve 50% of the maximum antibacterial effect. N is the steepness of the fitted concentration-response curve. The coefficient of determination (R^2) between efficacy and the PK/PD parameters was used for determining the goodness of fit of the curves. In addition, the parameters required to achieve bacterial stasis (Cs), 1 log10 kill, and 2 log10 kill were calculated interpolation or extrapolation based on Hill's equation.

[4] = free NZX in serum, tail vein 5, 10, 20 mg/kg, range over doses
[5] = 5 mg/kg, 1 dose in 24 h, total dose 0.125 mg
[6] = 5 mg/kg, 2 doses in 24 h, total dose 0.25 mg
[7] = 10 mg/kg, 1 dose in 24 h, total dose 0.25 mg
[8] = 10 mg/kg, 2 doses in 24 h, total dose 0.5 mg
[9] = 20 mg/kg, 1 dose in 24 h, total dose 0.5 mg
[10] = 20 mg/kg, 2 doses in 24 h, total dose 1 mg

Structure (SMILES): CC[C@H](C)[C@@H]1NC(=O)[C@H](CO)NC(=O)[C@H](CCCCN)NC(=O)[C@@H]2CSSC[C@@H](C(=O)N[C@@H](Cc3ccc(O)cc3)C(=O)O)NC(=O)[C@H](CCCCN)NC(=O)[C@@H]3CSSC[C@H](NC(=O)[C@H](CCC(N)=O)NC(=O)[C@H]([C@@H](C)CC)NC(=O)[C@H](CC(=O)O)NC(=O)[C@H](CC(=O)O)NC(=O)[C@H](CCC(=O)O)NC(=O)[C@H](CO)NC(=O)[C@H](Cc4c[nH]c5ccccc45)NC(=O)[C@@H]4CCCN4C(=O)CNC(=O)[C@H](CC(N)=O)NC(=O)[C@@H](NC(=O)CNC(=O)[C@H](Cc4ccccc4)NC(=O)CN)CSSC[C@H](NC(=O)[C@H](Cc4ccc(O)cc4)NC(=O)CNC(=O)CNC(=O)[C@H](CCCCN)NC(=O)[C@H](Cc4ccc(O)cc4)NC(=O)CNC(=O)[C@H](CCCCN)NC1=O)C(=O)N[C@@H](C)C(=O)N[C@@H](CCCNC(=N)N)C(=O)NCC(=O)NCC(=O)N[C@@H](Cc1ccccc1)C(=O)N[C@@H](C(C)C)C(=O)N3)C(=O)N[C@@H](Cc1c[nH]cn1)C(=O)N[C@@H](CC(N)=O)C(=O)N[C@@H](Cc1c[nH]cn1)C(=O)N2 [NZX] (H-GFGCNGPWSEDDIQCHNHCKSIKGYKGGYCARGGFVCKCY-OH; disulfide 4-30, 15-37, 19-39)
- time at which peak concentrations (Cmax) were observed ([1]; after intravenous administration, 5, 10, 20 mg/kg): 5 min
- Cmax over the three dose levels [1, 4]: 2850 to 20550 ng/mL
- T1/2 over the three dose levels [1, 4]: 19.2 to 30 min
- Vd over the three dose levels [1, 4]: 1.4691 to 2.0739 L/kg
- T1/2, terminal elimination half-life ([1]; single intravenous 5 mg/kg, five mice per time point): 19.2 min
- AUC, area under concentration-time curves ([1]; single intravenous 5 mg/kg): 1110 ng·h/mL
- Cmax, peak concentration ([1]; single intravenous 5 mg/kg): 2850 ng/mL
- MRT, mean residence time ([1]; single intravenous 5 mg/kg): 19.2 min
- Vd, apparent distribution volume ([1]; single intravenous 5 mg/kg): 2.0739 L/kg
- T1/2, terminal elimination half-life ([1]; single intravenous 10 mg/kg): 30 min
- AUC, area under concentration-time curves ([1]; single intravenous 10 mg/kg): 3540 ng·h/mL
- Cmax, peak concentration ([1]; single intravenous 10 mg/kg): 6530 ng/mL
- MRT, mean residence time ([1]; single intravenous 10 mg/kg): 38.4 min
- Vd, apparent distribution volume ([1]; single intravenous 10 mg/kg): 2.04541 L/kg
- T1/2, terminal elimination half-life ([1]; single intravenous 20 mg/kg): 27 min
- AUC, area under concentration-time curves ([1]; single intravenous 20 mg/kg): 8890 ng·h/mL
- Cmax, peak concentration ([1]; single intravenous 20 mg/kg): 20550 ng/mL
- MRT, mean residence time ([1]; single intravenous 20 mg/kg): 33.6 min
- Vd, apparent distribution volume ([1]; single intravenous 20 mg/kg): 1.4691 L/kg
- Protein binding [2]: 89.25%
- remaining at 24 h, 100 μg/ml [3]: 97%
- fAUC/MIC (S. aureus E48; [5]): 1.11
- fT > MIC (S. aureus E48; [5]): 0.33 h
- fAUC/MIC (S. aureus E48; [6]): 2.22
- fT > MIC (S. aureus E48; [6]): 0.67 h
- fAUC/MIC (S. aureus E48; [7]): 3.54
- fT > MIC (S. aureus E48; [7]): 0.94 h
- fAUC/MIC (S. aureus E48; [8]): 7.08
- fT > MIC (S. aureus E48; [8]): 1.88 h
- fAUC/MIC (S. aureus E48; [9]): 8.89
- fT > MIC (S. aureus E48; [9]): 2.05 h
- fAUC/MIC (S. aureus E48; [10]): 17.79
- fT > MIC (S. aureus E48; [10]): 4.09 h
